Laboratory results: patent publication US20250215029A1 (Recludix Pharma, Inc., priority 2022, published 2025)
Like-named read-outs stand apart in the source and are kept apart here.

Key:
[1] = target: T1, Recombinant STAT3 protein (STAT3 (G127-I722)) (Homo sapiens, UniProt P40763); experiment: STAT3 Fluorescence Polarization (FP) Assay; assay type: binding; conditions: probe 5-FAM-GpYLPQTV-NH2 2 nM, 45-minute incubation
T1 construct: Recombinant STAT3 protein (STAT3 (G127-I722))
In short: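 In this competition FP format, STAT3 residues G127-I722 (25 nM) and 2 nM 5-FAM-GpYLPQTV-NH2 met test compounds for 45 min at room temperature. IC50 values result from fitting mP signal against log concentration by nonlinear regression.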

[2] = target: T2, Recombinant STAT6 protein (STAT6 (W123-T658)) (Homo sapiens, UniProt P42226); experiment: STAT6 Fluorescence Polarization (FP) Assay; assay type: binding; conditions: 45-minute incubation
T2 construct: Recombinant STAT6 protein (STAT6 (W123-T658))
T2 sequence (P42226 123-658): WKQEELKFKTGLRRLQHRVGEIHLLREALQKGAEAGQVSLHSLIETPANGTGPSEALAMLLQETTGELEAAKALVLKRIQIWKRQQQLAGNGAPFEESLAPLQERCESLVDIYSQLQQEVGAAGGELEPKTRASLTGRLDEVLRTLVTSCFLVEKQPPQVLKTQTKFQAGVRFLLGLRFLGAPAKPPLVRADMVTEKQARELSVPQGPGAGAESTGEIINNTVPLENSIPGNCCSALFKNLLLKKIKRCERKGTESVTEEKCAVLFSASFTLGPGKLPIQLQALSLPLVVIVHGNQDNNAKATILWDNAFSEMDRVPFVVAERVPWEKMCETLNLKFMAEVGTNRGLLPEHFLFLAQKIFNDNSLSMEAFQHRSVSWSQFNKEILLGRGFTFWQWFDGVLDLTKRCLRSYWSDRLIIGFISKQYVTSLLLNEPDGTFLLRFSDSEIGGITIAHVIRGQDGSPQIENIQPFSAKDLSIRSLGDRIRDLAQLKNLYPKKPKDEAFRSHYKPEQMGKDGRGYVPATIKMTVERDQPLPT
In short: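 Competitive FP binding: recombinant STAT6 (W123-T658) at 250 nM, labeled phosphotyrosine peptide at 2 nM, compounds at 1% DMSO, 45 min at RT before reading. IC50 values were obtained from nonlinear regression of mP versus log concentration.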

[3] = STAT3 (G127-I722) 25 nM, read-out: STAT3 (FP assay IC50 class)
[4] = STAT6 (W123-T658) 250 nM, probe 5-FAM-Ap[…]-NH2 2 nM, read-out: STAT6 (FP assay IC50 class)
[5] = STAT3 25 nM, read-out: STAT3 (FP assay IC50)
[6] = STAT6 250 nM, probe 5-FAM-Ap[…]-NH2 2 nM, read-out: STAT6 (FP assay IC50)
[7] = STAT6 (W123-T658) 250 nM, probe 5-FAM-ApYKPFQDLI-NH2 2 nM, read-out: STAT6 (FP assay IC50 class)

T1 sequence (P40763 127-722): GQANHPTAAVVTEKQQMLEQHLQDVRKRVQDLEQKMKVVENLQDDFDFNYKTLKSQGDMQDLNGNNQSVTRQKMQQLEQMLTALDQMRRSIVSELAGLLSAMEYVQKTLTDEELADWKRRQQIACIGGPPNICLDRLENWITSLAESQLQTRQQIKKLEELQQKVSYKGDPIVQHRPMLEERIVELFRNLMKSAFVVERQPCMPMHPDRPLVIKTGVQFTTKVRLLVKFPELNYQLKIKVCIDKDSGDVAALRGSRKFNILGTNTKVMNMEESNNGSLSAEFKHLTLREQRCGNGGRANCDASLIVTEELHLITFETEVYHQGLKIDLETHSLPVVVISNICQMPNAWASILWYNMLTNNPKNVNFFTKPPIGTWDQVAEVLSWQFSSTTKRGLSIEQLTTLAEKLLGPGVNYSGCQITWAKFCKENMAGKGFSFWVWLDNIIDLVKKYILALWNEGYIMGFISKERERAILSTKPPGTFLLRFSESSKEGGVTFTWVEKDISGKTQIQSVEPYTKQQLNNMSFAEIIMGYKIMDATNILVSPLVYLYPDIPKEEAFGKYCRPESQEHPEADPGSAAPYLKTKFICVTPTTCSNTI

IC50 [1, 3] [µM] | IC50 [2, 4] [µM] | IC50 [1, 5] [µM] | IC50 [2, 6] [µM] | IC50 [2, 7] [µM] | SMILES
0.1 to 1 | 3 to 30 | – | – | – | O=C(N[C@H]1CCC[C@H]2CC[C@@H](C(=O)N3CC(c4ccccc4N4CCOCC4)C3)N2C1=O)c1cc2cc(C(F)P(=O)(O)O)ccc2s1 (stereo partly drawn) [Compound 670, (fluoro(2-(((3S,6S,9aS)-3-(3-(2-morpholinophenyl)azetidine-1-carbonyl)-5-oxooctahydro-1H-pyrrolo[1,2-a]azepin-6-yl)carbamoyl)benzo [b]thiophen-5-yl)methyl) phosphonic acid]
< 0.1 | 3 to 30 | – | – | – | O=C(N[C@H]1CCC[C@H]2CC[C@@H](C(=O)N3CC(c4cnccc4N4C[C@@H]5C[C@H]4CO5)C3)N2C1=O)c1cc2cc(C(F)P(=O)(O)O)ccc2s1 (stereo partly drawn) [Compound 683, ((2-(((3S,6S,9aS)-3-(3-(4-((1S,4S)-2-oxa-5-azabicyclo[2.2.1]heptan-5-yl)pyridin-3-yl)azetidine-1-carbonyl)-5-oxooctahydro-1H-pyrrolo[1,2-a]azepin-6-yl)carbamoyl)benzo [b]thiophen-5-yl)fluoromethyl) phosphonic acid]
< 0.1 | 3 to 30 | – | – | – | CCC[C@H]1CC[C@H](NC(=O)c2cc3cc(C(F)P(=O)(O)O)ccc3s2)C(=O)N2[C@H](CC[C@H]2C(=O)N2CC(c3cnccc3OC)C2)C1 (stereo partly drawn) [Compound 247, (fluoro(2-(((3S,6S,9S,10aR)-3-(3-(4-methoxypyridin-3-yl)azetidine-1-carbonyl)-5-oxo-9-propyldecahydropyrrolo[1,2-a]azocin-6-yl)carbamoyl)benzo[b]thiophen-5-yl)methyl)phosphonic acid]
< 0.1 | 3 to 30 | – | – | – | Cc1ccncc1C1CN(C(=O)[C@@H]2CC[C@@H]3CCC[C@H](NC(=O)c4cc5cc([C@@H](F)P(=O)(O)O)ccc5s4)C(=O)N32)C1 (single isomer, unassigned) [Compound 755]
< 0.1 | 0.3 to 3 | – | – | – | C[C@@H]1C[C@H]2CC[C@@H](C(=O)N3CC(c4cnccc4F)C3)N2C(=O)[C@@H](NC(=O)c2cc3cc(C(F)P(=O)(O)O)ccc3s2)C1 (stereo partly drawn) [Compound 209, (fluoro(2-(((3S,6S,8S,9aR)-3-(3-(4-fluoropyridin-3-yl)azetidine-1-carbonyl)-8-methyl-5-oxooctahydro-1H-pyrrolo[1,2-a]azepin-6-yl)carbamoyl)benzo[b]thiophen-5-yl)methyl)phosphonic acid]
< 0.1 | 3 to 30 | – | – | – | CN(C)c1ncncc1C1CN(C(=O)[C@@H]2CC[C@@H]3CCC[C@H](NC(=O)c4cc5cc(CP(=O)(O)O)ccc5s4)C(=O)N32)C1 [Compound 863, ((2-(((3S,6S,9aS)-3-(3-(4-(dimethylamino)pyrimidin-5-yl)azetidine-1-carbonyl)-5-oxooctahydro-1H-pyrrolo[1,2-a]azepin-6-yl)carbamoyl)benzo [b]thiophen-5-yl)methyl) phosphonic acid]
< 0.1 | 3 to 30 | – | – | – | COC[C@@H]1CCN1c1ncncc1C1CN(C(=O)[C@@H]2CC[C@@H]3CCC[C@H](NC(=O)c4cc5cc([C@H](F)P(=O)(O)O)ccc5s4)C(=O)N32)C1 (single isomer, unassigned) [Compound 862]
< 0.1 | 3 to 30 | – | – | – | O=C(N[C@H]1CCC[C@H]2CC[C@@H](C(=O)N3CC(c4cnccc4N4CC(C(F)F)C4)C3)N2C1=O)c1cc2cc(CP(=O)(O)O)ccc2s1 [Compound 691, ((2-(((3S,6S,9aS)-3-(3-(4-(3-(difluoromethyl)azetidin-1-yl)pyridin-3-yl)azetidine-1-carbonyl)-5-oxooctahydro-1H-pyrrolo[1,2-a]azepin-6-yl)carbamoyl)benzo [b]thiophen-5-yl)methyl) phosphonic acid]

More lines, now with the values behind:

SMILES | IC50 [1, 3] [µM] | IC50 [2, 4] [µM] | IC50 [1, 5] [µM] | IC50 [2, 6] [µM] | IC50 [2, 7] [µM]
O=C(N[C@H]1CCC[C@H]2CC[C@@H](C(=O)N3CC(c4cccnc4)C3)N2C1=O)c1cc2nc(CP(=O)(O)O)ccc2s1 [Compound 208, ((2-(((3S,6S,9aS)-5-oxo-3-(3-(pyridin-3-yl)azetidine-1-carbonyl)octahydro-1H-pyrrolo[1,2-a]azepin-6-yl)carbamoyl)thieno[3,2-b]pyridin-5-yl)methyl)phosphonic acid] | 1 to 10 | 3 to 30 | – | – | –
C[C@H]1C[C@H]2CC[C@@H](C(=O)N3CC(c4cncnc4N4CCC4)C3)N2C(=O)[C@@H](NC(=O)c2cc3cc(CP(=O)(O)O)ccc3s2)C1 [Compound 678, ((2-(((3S,6S,8R,9aR)-3-(3-(4-(azetidin-1-yl)pyrimidin-5-yl)azetidine-1-carbonyl)-8-methyl-5-oxooctahydro-1H-pyrrolo[1,2-a]azepin-6-yl)carbamoyl)benzo [b]thiophen-5-yl)methyl) phosphonic acid] | < 0.1 | 3 to 30 | – | – | –
CCCC(=O)NC1(c2ccccn2)CN(C(=O)[C@@H]2CC[C@@H]3CCCC[C@H](NC(=O)c4cc5cc(C(F)(F)P(=O)(O)O)ccc5s4)C(=O)N32)C1 [Compound 122, ((2-(((3S,6S,10aS)-3-(3-butyramido-3-(pyridin-2-yl)azetidine-1-carbonyl)-5-oxodecahydropyrrolo[1,2-a]azocin-6-yl)carbamoyl)benzo[b]thiophen-5-yl)difluoromethyl)phosphonic acid] | – | – | < 0.1 | 3 to 30 | –
O=C(N[C@H]1CCCC[C@H]2CC[C@@H](C(=O)N3C[C@@H](c4ccccc4)CC34CC4)N2C1=O)c1cc2cc(C(F)(F)P(=O)(O)O)ccc2s1 (single isomer, unassigned) [Compound 890] | 1 to 10 | – | – | – | ≤ 0.3
N#C[C@@H]1[C@@H](c2cccnc2)CN(C(=O)[C@@H]2CC[C@@H]3CCCC[C@H](NC(=O)c4cc5cc([C@H](F)P(=O)(O)O)ccc5s4)C(=O)N32)C12CC2 (single isomer, unassigned) [Compound 840] | 1 to 10 | – | – | – | ≤ 0.3
N#Cc1cncc(C2CN(C(=O)[C@@H]3CC[C@@H]4CCC[C@H](NC(=O)c5cc6cc(CP(=O)(O)O)ccc6s5)C(=O)N43)C2)c1 [Compound 659, ((2-(((3S,6S,9aS)-3-(3-(5-cyanopyridin-3-yl)azetidine-1-carbonyl)-5-oxooctahydro-1H-pyrrolo[1,2-a]azepin-6-yl)carbamoyl)benzo [b]thiophen-5-yl)methyl) phosphonic acid] | 1 to 10 | 3 to 30 | – | – | –
O=C(N[C@H]1CCCC[C@H]2CC[C@@H](C(=O)N3C(=O)N(c4cccc5c4OC(F)(F)O5)C(=O)C34CC4)N2C1=O)c1cc2cc(C(F)P(=O)(O)O)ccc2s1 (stereo partly drawn) [Compound 601, ((2-(((3S,6S,10aS)-3-(6-(2,2-difluorobenzo[d][1, 3]dioxol-4-yl)-5,7-dioxo-4,6-diazaspiro[2.4]heptane-4-carbonyl)-5-oxodecahydropyrrolo [1,2-a]azocin-6-yl)carbamoyl)benzo [b]thiophen-5-yl)fluoromethyl) phosphonic acid] | 1 to 10 | ≤ 0.3 | – | – | –
N#C[C@@H]1[C@@H](c2ccccc2)CN(C(=O)[C@@H]2CC[C@@H]3C[C@@H](N4CCC4)CC[C@H](NC(=O)c4cc5cc([C@@H](F)P(=O)(O)O)ccc5s4)C(=O)N32)C12CC2 (single isomer, unassigned) [Compound 935] | 1 to 10 | ≤ 0.3 | – | – | –
N#C[C@H]1CN(C(=O)[C@@H]2CC[C@@H]3/C=C\CC[C@H](NC(=O)c4cc5cc(C(F)(F)P(=O)(O)O)ccc5s4)C(=O)N32)C[C@@H]1c1ccccc1 (relative stereo) [Compound 27, ((2-(((3S,6S,10aR,Z)-3-(rel-trans)3-cyano-4-phenylpyrrolidine-1-carbonyl)-5-oxo-1,2,3,5,6,7,8,10a-octahydropyrrolo[1,2-a]azocin-6-yl)carbamoyl)benzo[b]thiophen-5-yl) difluoromethyl) phosphonic acid] | – | – | 1 to 10 | ≤ 0.3 | –
C[C@@H]1[C@@H](n2ccnc2)CN1C(=O)[C@@H]1CC[C@@H]2CCC[C@H](NC(=O)c3cc4cc(C(F)(F)P(=O)(O)O)ccc4s3)C(=O)N21 [Compound 81, ((2-(((3S,6S,9aS)-3-((2R,3S)-3-(1H-imidazol-1-yl)-2-methylazetidine-1-carbonyl)-5-oxooctahydro-1H-pyrrolo[1,2-a]azepin-6-yl)carbamoyl)benzo[b]thiophen-5-yl)difluoromethyl) phosphonic acid] | – | – | < 0.1 | 0.3 to 3 | –
